{"source": "ChEMBL document CHEMBL1782045", "about": "“Discovery, synthesis, and investigation of the antitumor activity of novel piperazinylpyrimidine derivatives” (Eur J Med Chem, 2011)", "key": {"CCRF-CEM": {"system": "CCRF-CEM", "assay": "Growth inhibition of human CCRF-CEM cells after 48 hrs by sulforhodamine B assay", "type": "functional"}, "MOLT-4": {"system": "MOLT-4", "assay": "Growth inhibition of human MOLT4 cells after 48 hrs by sulforhodamine B assay", "type": "functional", "settings": "MOLT-4, 48 h"}, "RPMI-8226": {"system": "RPMI-8226", "assay": "Growth inhibition of human RPMI8226 cells after 48 hrs by sulforhodamine B assay", "type": "functional", "settings": "RPMI-8226, 48 h"}, "HCC 2998": {"system": "HCC 2998", "assay": "Growth inhibition of human HCC2998 cells after 48 hrs by sulforhodamine B assay", "type": "functional", "settings": "HCC 2998, 48 h"}, "SK-MEL-28": {"system": "SK-MEL-28", "assay": "Growth inhibition of human SK-MEL-28 cells after 48 hrs by sulforhodamine B assay", "type": "functional", "settings": "SK-MEL-28, 48 h"}, "SK-MEL-5": {"system": "SK-MEL-5", "assay": "Growth inhibition of human SK-MEL-5 cells after 48 hrs by sulforhodamine B assay", "type": "functional", "settings": "SK-MEL-5, 48 h"}, "OVCAR-8": {"system": "OVCAR-8", "assay": "Growth inhibition of human OVCAR8 cells after 48 hrs by sulforhodamine B assay", "type": "functional", "settings": "OVCAR-8, 48 h"}, "[1]": {"molecular_target": "T1, Receptor-type tyrosine-protein kinase FLT3 (Homo sapiens, UniProt P36888)", "T1 sequence (P36888 whole entry)": "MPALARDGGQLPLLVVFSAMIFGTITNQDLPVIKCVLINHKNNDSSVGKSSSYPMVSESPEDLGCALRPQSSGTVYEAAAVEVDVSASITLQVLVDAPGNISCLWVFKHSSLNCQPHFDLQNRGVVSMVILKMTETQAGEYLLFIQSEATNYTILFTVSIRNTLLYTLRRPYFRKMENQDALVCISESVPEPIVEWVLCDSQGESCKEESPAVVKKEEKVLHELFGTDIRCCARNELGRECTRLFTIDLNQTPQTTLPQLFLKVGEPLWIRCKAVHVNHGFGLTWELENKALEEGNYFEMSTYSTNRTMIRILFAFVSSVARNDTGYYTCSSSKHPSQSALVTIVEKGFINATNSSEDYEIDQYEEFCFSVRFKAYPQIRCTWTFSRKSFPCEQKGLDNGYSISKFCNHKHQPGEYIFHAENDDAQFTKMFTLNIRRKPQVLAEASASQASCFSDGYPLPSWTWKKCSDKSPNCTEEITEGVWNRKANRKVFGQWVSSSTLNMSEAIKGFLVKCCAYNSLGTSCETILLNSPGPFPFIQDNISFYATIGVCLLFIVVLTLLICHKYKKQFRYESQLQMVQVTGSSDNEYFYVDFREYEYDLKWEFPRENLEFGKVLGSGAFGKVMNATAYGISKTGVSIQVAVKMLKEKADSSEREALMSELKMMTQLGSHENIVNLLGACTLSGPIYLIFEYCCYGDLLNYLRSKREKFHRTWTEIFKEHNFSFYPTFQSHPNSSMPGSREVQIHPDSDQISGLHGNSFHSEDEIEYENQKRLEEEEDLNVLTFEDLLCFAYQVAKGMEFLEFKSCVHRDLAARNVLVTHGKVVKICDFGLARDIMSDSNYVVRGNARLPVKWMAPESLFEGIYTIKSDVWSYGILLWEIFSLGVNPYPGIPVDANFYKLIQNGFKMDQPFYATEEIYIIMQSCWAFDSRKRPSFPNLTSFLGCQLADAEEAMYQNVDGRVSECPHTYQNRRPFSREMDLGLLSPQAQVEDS", "assay": "Binding affinity to human FLT3 incubated for 1 hr by kinase binding assay"}, "PC-3": {"system": "PC-3", "assay": "Growth inhibition of human PC3 cells after 48 hrs by sulforhodamine B assay", "type": "functional", "settings": "PC-3, 48 h"}, "[2]": {"molecular_target": "T1, Receptor-type tyrosine-protein kinase FLT3", "assay": "Inhibition of human FLT3 using gamma-33P-ATP as substrate by scintillation counting"}, "SF-295": {"system": "SF-295", "assay": "Growth inhibition of human SF295 cells after 48 hrs by sulforhodamine B assay", "type": "functional", "settings": "SF-295, 48 h"}, "OVCAR-4": {"system": "OVCAR-4", "assay": "Growth inhibition of human OVCAR4 cells after 48 hrs by sulforhodamine B assay", "type": "functional", "settings": "OVCAR-4, 48 h"}, "[3]": {"molecular_target": "Mast/stem cell growth factor receptor Kit (Homo sapiens) (UniProt P10721)", "sequence (P10721 whole entry)": "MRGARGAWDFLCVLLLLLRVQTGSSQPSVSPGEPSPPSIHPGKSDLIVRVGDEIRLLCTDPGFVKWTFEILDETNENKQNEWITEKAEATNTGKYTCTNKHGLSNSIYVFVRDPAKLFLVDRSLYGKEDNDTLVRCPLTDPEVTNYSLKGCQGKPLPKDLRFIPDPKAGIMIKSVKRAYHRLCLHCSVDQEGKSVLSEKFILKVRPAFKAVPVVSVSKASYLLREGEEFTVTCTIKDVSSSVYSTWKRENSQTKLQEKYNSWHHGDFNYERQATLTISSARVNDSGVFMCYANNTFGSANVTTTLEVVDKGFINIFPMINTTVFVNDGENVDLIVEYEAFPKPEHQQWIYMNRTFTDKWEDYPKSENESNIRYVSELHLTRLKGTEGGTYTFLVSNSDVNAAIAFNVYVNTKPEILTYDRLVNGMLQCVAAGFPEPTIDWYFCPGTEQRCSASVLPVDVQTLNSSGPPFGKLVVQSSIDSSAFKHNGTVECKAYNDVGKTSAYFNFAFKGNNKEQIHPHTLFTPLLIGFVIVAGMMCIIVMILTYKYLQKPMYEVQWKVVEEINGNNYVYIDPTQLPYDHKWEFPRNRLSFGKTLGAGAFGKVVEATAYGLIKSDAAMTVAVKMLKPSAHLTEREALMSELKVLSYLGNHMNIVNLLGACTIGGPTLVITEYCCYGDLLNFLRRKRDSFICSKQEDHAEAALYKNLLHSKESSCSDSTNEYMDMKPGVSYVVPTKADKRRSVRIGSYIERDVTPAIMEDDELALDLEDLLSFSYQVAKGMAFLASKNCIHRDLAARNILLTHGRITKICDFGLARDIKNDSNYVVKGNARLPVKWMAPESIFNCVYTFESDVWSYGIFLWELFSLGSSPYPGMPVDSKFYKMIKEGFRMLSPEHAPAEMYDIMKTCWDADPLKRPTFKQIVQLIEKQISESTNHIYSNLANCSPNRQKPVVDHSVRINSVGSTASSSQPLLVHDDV", "assay": "Binding affinity to human KIT at 10 uM incubated for 1 hr by kinase binding assay relative to untreated control"}, "[4]": {"system": "Mast/stem cell growth factor receptor Kit (Homo sapiens), P10721 [V559D]", "sequence (P10721 whole entry V559D)": "as the sequence (P10721 whole entry) above, with V559D counted along it", "assay": "Binding affinity to human KIT V559D mutant at 10 uM incubated for 1 hr by kinase binding assay relative to untreated control"}, "[5]": {"system": "Platelet-derived growth factor receptor alpha (Homo sapiens), P16234 [D842V]", "sequence (P16234 whole entry D842V)": "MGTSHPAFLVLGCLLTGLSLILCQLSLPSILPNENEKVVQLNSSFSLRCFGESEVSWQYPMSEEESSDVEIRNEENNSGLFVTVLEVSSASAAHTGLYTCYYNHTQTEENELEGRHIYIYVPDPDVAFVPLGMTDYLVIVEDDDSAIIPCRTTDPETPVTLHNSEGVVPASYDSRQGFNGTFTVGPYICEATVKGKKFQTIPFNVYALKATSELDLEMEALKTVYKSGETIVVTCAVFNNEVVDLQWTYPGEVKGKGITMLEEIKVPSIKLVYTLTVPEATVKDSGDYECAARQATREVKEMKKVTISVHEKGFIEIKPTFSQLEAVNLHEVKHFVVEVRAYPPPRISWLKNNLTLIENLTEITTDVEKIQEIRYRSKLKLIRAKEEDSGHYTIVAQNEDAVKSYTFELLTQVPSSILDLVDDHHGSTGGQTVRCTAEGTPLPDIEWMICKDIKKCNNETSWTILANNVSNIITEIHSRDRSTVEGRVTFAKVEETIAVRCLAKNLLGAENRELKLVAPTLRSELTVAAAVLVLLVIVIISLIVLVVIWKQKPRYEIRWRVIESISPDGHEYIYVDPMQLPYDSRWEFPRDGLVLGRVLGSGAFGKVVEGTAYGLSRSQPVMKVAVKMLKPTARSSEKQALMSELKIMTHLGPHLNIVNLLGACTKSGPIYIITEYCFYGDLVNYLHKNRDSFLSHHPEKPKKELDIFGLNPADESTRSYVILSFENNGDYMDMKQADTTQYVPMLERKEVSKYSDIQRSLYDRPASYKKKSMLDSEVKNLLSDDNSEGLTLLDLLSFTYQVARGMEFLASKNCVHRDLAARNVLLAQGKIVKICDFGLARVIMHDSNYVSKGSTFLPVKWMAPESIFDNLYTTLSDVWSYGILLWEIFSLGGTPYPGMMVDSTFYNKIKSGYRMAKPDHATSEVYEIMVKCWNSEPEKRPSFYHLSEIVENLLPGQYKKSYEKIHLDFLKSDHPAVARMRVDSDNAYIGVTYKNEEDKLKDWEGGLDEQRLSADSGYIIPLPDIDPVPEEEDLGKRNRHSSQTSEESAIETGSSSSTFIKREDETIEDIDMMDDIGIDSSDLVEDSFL", "assay": "Inhibition of human PDGFRA D842V using gamma-33P-ATP as substrate assessed as enzyme functional activity at 1 uM by scintillation counting relative to untreated control", "design": "scale not given: the % may be the effect or the level left"}, "MDA-MB-468": {"system": "MDA-MB-468", "assay": "Growth inhibition of human MDA-MB-468 cells after 48 hrs by sulforhodamine B assay", "type": "functional", "settings": "MDA-MB-468, 48 h"}}}
{"smiles": "c1ccc(Cc2cnc(N3CCN(c4ncnc5ccccc45)CC3)nc2)cc1", "values": [{"measurement": "TGI", "setting": "CCRF-CEM", "value": 64.4, "unit": "µM"}, {"measurement": "TGI", "setting": "MOLT-4", "value": 40.6, "unit": "µM"}, {"measurement": "TGI", "setting": "RPMI-8226", "value": 21.8, "unit": "µM"}, {"measurement": "TGI", "setting": "HCC 2998", "value": 60.9, "unit": "µM"}, {"measurement": "TGI", "setting": "SK-MEL-28", "value": 99.3, "unit": "µM"}, {"measurement": "TGI", "setting": "SK-MEL-5", "value": 13.9, "unit": "µM"}, {"measurement": "TGI", "setting": "OVCAR-8", "value": 25.6, "unit": "µM"}, {"measurement": "Kd", "setting": "[1]", "value": 0.46, "unit": "µM"}, {"measurement": "TGI", "setting": "PC-3", "value": "> 100", "unit": "µM"}, {"measurement": "IC50", "setting": "[2]", "value": 6.69, "unit": "µM"}]}
{"smiles": "CCc1cnc(N2CCN(C(=O)c3ccc(CNc4ncnc5ccccc45)cc3)CC2)nc1", "values": [{"measurement": "GI50", "setting": "CCRF-CEM", "value": 10, "unit": "µM"}, {"measurement": "TGI", "setting": "CCRF-CEM", "value": 60.9, "unit": "µM"}, {"measurement": "TGI", "setting": "SF-295", "value": 23.1, "unit": "µM"}, {"measurement": "TGI", "setting": "SK-MEL-28", "value": "> 100", "unit": "µM"}, {"measurement": "TGI", "setting": "OVCAR-4", "value": 58.8, "unit": "µM"}, {"measurement": "TGI", "setting": "OVCAR-8", "value": "> 100", "unit": "µM"}, {"measurement": "Activity", "setting": "[3]", "value": "> 50", "unit": "%"}, {"measurement": "Activity", "setting": "[4]", "value": "> 50", "unit": "%"}, {"measurement": "TGI", "setting": "PC-3", "value": "> 100", "unit": "µM"}, {"measurement": "Activity", "setting": "[5]", "value": 100, "unit": "%"}]}
{"smiles": "O=C(c1cccc(Nc2ncnc3ccccc23)c1)N1CCN(c2ncc(Cc3ccccc3)cn2)CC1", "values": [{"measurement": "TGI", "setting": "RPMI-8226", "value": 0.6, "unit": "µM"}, {"measurement": "TGI", "setting": "HCC 2998", "value": 3.98, "unit": "µM"}, {"measurement": "TGI", "setting": "SK-MEL-5", "value": 1.2, "unit": "µM"}, {"measurement": "Activity", "setting": "[3]", "value": "> 50", "unit": "%"}, {"measurement": "Activity", "setting": "[4]", "value": "> 50", "unit": "%"}, {"measurement": "TGI", "setting": "MDA-MB-468", "value": 3.47, "unit": "µM"}, {"measurement": "Activity", "setting": "[5]", "value": 96, "unit": "%"}]}
